Test results published in article PMC6941124 (International Journal of Molecular Sciences, 2019).
Substitutions are numbered along the chain they refer to.

Experiments:
CK1δ R127L = biological target: T1, CK1δ R127L (Homo sapiens, UniProt P48730, R127L); assay: in vitro kinase assay, CK1δ mutant R127L; assay type: biochemical; details: inhibitor at IC50 concentration previously determined for CK1δ WT; DMSO control = 100%; adjusted to WT = 50%; mean ± SD
T1 sequence (P48730 1-415 R127L): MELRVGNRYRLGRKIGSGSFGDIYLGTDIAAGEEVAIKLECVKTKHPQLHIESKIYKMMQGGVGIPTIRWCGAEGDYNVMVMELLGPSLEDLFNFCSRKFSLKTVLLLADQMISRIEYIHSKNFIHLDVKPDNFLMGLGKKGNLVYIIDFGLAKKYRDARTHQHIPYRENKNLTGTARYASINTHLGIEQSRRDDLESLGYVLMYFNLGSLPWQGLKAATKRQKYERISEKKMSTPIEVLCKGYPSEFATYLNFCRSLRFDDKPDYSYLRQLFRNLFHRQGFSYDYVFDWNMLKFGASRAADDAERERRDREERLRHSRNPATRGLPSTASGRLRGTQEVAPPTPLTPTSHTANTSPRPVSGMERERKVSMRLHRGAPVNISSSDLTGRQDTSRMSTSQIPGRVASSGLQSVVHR
Protocol: (§1) Overexpression and purification of GST-CK1δ fusion proteins, either wild type or mutant, were performed as described previously.
(§2) Each kinase assay reaction was performed in kinase buffer (25 mM Tris-HCl (pH 7.5), 10 μM ATP, 10 mM MgCl2, 100 μM EDTA) in presence of purified GST-CK1δ kinase as source of enzyme (either wild type or mutant), an assay-specific substrate (α-casein, GST-p53^1−64, or GST-β-catenin^1−181), and radiolabeled ATP (2 μCi [γ-^32P]-ATP). For performing Michaelis–Menten analysis increasing substrate concentrations were used (α-casein: 0.39−25 μM; GST-p53^1−64: 0.09−1.87 μM; GST-β-catenin^1−181: 0.07−1.32 μM). For biological evaluation of small molecule inhibitors (SMIs), each inhibitor compound was either tested at 10 μM concentration for initial screening or by using a dilution series (0.005−10 µM) for determination of IC50 values. DMSO was used as control. Reactions were incubated for 30 min at 30 °C and reactions were stopped using 5x SDS-loading buffer (250 mM Tris-HCl [pH 6.8], 25% (v/v) β-mercaptoethanol (MSH), 50% (v/v) glycerol, 10% (w/v) SDS, 0.5% (w/v) bromphenol blue). Subsequently, samples were separated by SDS-PAGE using 12.5% acrylamide gels, stained with Coomassie, and phosphorylated substrates were visualized on X-ray film. Incorporation of radiolabeled phosphate was quantified by scintillation counting of Coomassie-stained substrate bands. Defined dilutions of the reaction master mix were counted as well in order to convert results obtained as counts per minute (CPM) to units of transferred phosphate in pmol/min. Michaelis–Menten analysis was performed using GraphPad Prism 6 (GraphPad Software, San Diego, CA, USA).

CK1δ R299Q = biological target: T2, CK1δ R299Q (Homo sapiens, UniProt P48730, R299Q); assay: in vitro kinase assay, CK1δ mutant R299Q; assay type: biochemical; details: inhibitor at IC50 concentration previously determined for CK1δ WT; DMSO control = 100%; adjusted to WT = 50%; mean ± SD
T2 sequence (P48730 1-415 R299Q): T1 sequence (P48730 1-415 R127L) with L127R, R299Q
Protocol: as §1, §2

Row | Compound | Residual activity of CK1δ R127L (CK1δ R127L) | Residual activity of CK1δ R299Q (CK1δ R299Q)
1 | O=C(Nc1nc2ccc(C(F)(F)F)cc2[nH]1)c1csc(NC(=O)c2ccccc2OC(F)(F)F)n1 [Bischof-5] | 50 ± 11% | 64 ± 22%
2 | Cc1ccc2nc(NC(=O)CSc3nc4c(c(=O)n3-c3ccccc3)SCC4)sc2c1 [IWP-2] | 42 ± 9% | 36 ± 20%
3 | COc1ccccc1-n1c(SCC(=O)Nc2nc3ccc(C)cc3s2)nc2c(c1=O)SCC2 [IWP-4] | 48 ± 10% | 91 ± 60%
